8 compounds from ChEMBL document CHEMBL1149953 (Bioorg Med Chem Lett, 1996) can be followed below.

The target in assay [1] is T1, Type-1 angiotensin II receptor B (Rattus norvegicus, UniProt P29089).
T1 sequence (P29089 whole entry): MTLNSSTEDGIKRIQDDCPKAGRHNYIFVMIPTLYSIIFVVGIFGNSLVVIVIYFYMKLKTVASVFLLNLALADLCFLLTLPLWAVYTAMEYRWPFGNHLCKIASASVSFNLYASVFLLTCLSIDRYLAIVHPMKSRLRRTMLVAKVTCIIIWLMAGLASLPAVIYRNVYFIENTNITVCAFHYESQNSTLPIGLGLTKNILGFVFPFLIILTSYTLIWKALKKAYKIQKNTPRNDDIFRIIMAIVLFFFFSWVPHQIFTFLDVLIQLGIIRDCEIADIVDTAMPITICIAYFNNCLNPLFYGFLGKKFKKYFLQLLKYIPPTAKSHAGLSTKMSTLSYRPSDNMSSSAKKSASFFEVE
Kind of assay: In vitro ability to displace the specific binding of [125I]-A II from receptors in rat liver membrane(type 1 receptor).

The subject of assay [2] is Rattus norvegicus. As to the kind of experiment: In vivo potency to inhibit the pressor response induced by angiotensin II (100ng/Kg, iv) in conscious normotensive rat at 24 hours after administration of 3 mg/kg, po. It is filed as functional. The conditions noted are these: for inhibition in vivo at 3 mg/kg: Rattus norvegicus, po, 24 h.
The subject of assay [3] is Rattus norvegicus. Kind of assay: In vivo potency to inhibit the pressor response induced by angiotensin II (100ng/Kg, iv) in conscious normotensive rat at 6 hours after administration of 3 mg/kg, po. The note with it: for inhibition in vivo at 3 mg/kg: Rattus norvegicus, po, 6 h. It counts as functional.
The test system of assay [4] is Rattus norvegicus. As to the kind of experiment: In vivo potency to inhibit the pressor response induced by angiotensin II (100ng/Kg, iv) in conscious normotensive rat at 24 hours after administration of 0.3 mg/kg, po. It counts as functional.
Assay [5] relates to Rattus norvegicus. Kind of assay: In vivo potency to inhibit the pressor response induced by angiotensin II (100ng/Kg, iv) in conscious normotensive rat at 24 hours after administration of 1 mg/kg, po. It is filed as functional.
Assay [6] relates to Rattus norvegicus. Kind of assay: In vivo potency to inhibit the pressor response induced by angiotensin II (100ng/Kg, iv) in conscious normotensive rat at 6 hours after administration of 0.3 mg/kg, po. It is filed as functional.
For assay [7], the system named is Rattus norvegicus. Kind of assay: In vivo potency to inhibit the pressor response induced by angiotensin II (100ng/Kg, iv) in conscious normotensive rat at 6 hours after administration of 1 mg/kg, po. It is filed as functional.
Assay [8] deals with Rattus norvegicus. As to the kind of experiment: Compound was tested for antihypertensive effect in renal hypertensive rats at 1 mg/kg, po expressed as percent reduction in blood pressure. It counts as functional.
The subject of assay [9] is Rattus norvegicus. Kind of assay: Compound was tested for antihypertensive effect in renal hypertensive rats at 3 mg/kg, po expressed as percent reduction in blood pressure. It is filed as functional.
Assay [10] deals with Rattus norvegicus. As to the kind of experiment: Compound was tested for antihypertensive effect in renal hypertensive rats at 10 mg/kg, po expressed as percent reduction in blood pressure. It is filed as functional.
Assay [11] deals with Rattus norvegicus. As to the kind of experiment: Compound was tested for antihypertensive effect in renal hypertensive rats at 0.3 mg/kg, po expressed as percent reduction in blood pressure. It is filed as functional.
For assay [12], the system named is Rattus norvegicus. Kind of assay: In vivo potency to inhibit the pressor response induced by angiotensin II (100ng/Kg, iv) in conscious normotensive rat at 6 hours after administration of 0.1 mg/kg, po.
For assay [13], the system named is Rattus norvegicus. As to the kind of experiment: In vivo potency to inhibit the pressor response induced by angiotensin II (100ng/Kg, iv) in conscious normotensive rat at 24 hours after administration of 0.1 mg/kg, po.
Assay [14] has as its system Rattus norvegicus. As to the kind of experiment: Antihypertensive effect as reduction in blood pressure in renal hypertensive rats at 10 mg/kg dose specified administered perorally. The conditions noted are these: route oral. It is filed as functional. More on the design: scale not given: the % may be the effect or the level left.
In assay [15] the test system is Rattus norvegicus. As to the kind of experiment: Antihypertensive effect as reduction in blood pressure in renal hypertensive rats at 3 mg/kg dose specified administered perorally. It is filed as functional. Details: scale not given: the % may be the effect or the level left. The conditions noted are these: route oral.
Assay [16] relates to Rattus norvegicus. Kind of assay: In vivo potency to inhibit the pressor responses induced by angiotensin II (100ng/kg, iv) in conscious normotensive rat at 10 mg/kg dose specified 24 hr after peroral administration. It is filed as functional. The conditions noted are these: route oral.
Assay [17] has as its system Rattus norvegicus. As to the kind of experiment: In vivo potency to inhibit the pressor responses induced by angiotensin II (100ng/kg, iv) in conscious normotensive rat at 10 mg/kg dose specified 6 hr upon peroral administration. It counts as functional. The note with it: route oral.
The test system of assay [18] is Rattus norvegicus. As to the kind of experiment: In vivo potency to inhibit the pressor responses induced by angiotensin II (100ng/kg, iv) in conscious normotensive rat at 3 mg/kg dose specified 24 hr after peroral administration. It is filed as functional. The note with it: route oral.
Assay [19] relates to Rattus norvegicus. As to the kind of experiment: In vivo potency to inhibit the pressor responses induced by angiotensin II (100ng/kg, iv) in conscious normotensive rat at 1 mg/kg dose specified 24 hr after peroral administration. It is filed as functional. The conditions noted are these: route oral.
For assay [20], the system named is Rattus norvegicus. As to the kind of experiment: In vivo potency to inhibit the pressor responses induced by angiotensin II (100ng/kg, iv) in conscious normotensive rat at 3 mg/kg dose specified 6 hr upon peroral administration. It counts as functional. The note with it: route oral.
Assay [21] concerns Rattus norvegicus. As to the kind of experiment: In vivo potency to inhibit the pressor responses induced by angiotensin II (100ng/kg, iv) in conscious normotensive rat at 1 mg/kg dose specified 6 hr upon peroral administration. The note with it: route oral. It counts as functional.

Consider `CCc1nn(Cc2ccc(-c3ccccc3-c3nn[nH]n3)cc2)/c(=N/C(=O)c2ccccc2)s1`, for which, in [1], the IC50 (as a rule, the midpoint of a concentration-inhibition curve) turned out to be 37 nM. The inhibition in vivo – broadly, the drop in the measured response relative to a control, in per cent – at 3 mg/kg is -0.4% in [2] and 4.9% in [3].
In the same order, the values of `CCc1nn(Cc2ccc(-c3ccccc3-c3nn[nH]n3)cc2)/c(=N/C(=O)C2CC2)s1` are 6.5 nM, -12.4% and 7.8%.
On to `CCc1nn(Cc2ccc(-c3ccccc3-c3nn[nH]n3)cc2)/c(=N/C(=O)C2=C(C(=O)O)CCC2)s1`, for which the IC50 in [1] stood at 0.44 nM. Further, the inhibition in vivo at 0.3 mg/kg in assay [4] (Rattus norvegicus, po, 24 h) amounted to 15%. The Inhibition (usually the change of the read-out against control, counted positive when it falls) in [5] came to 36.6%; in assay [2], 63.1%; in assay [6] it was 22.4%; in [7], 36.4%; in assay [3], 39.5%. The results for the Reduction in assay [8] and in [9] were 33.5% and 44.3%, respectively.
`CCc1nn(Cc2ccc(-c3ccccc3-c3nn[nH]n3)cc2)/c(=N/C(=O)c2ccccc2C(=O)O)s1` yielded an IC50 in assay [1] of 0.66 nM. Besides, the inhibition in vivo at 3 mg/kg in assay [2] came out at 23.2%; in assay [3], 48.1%. The Reduction in [10] came out at 33.8%; in assay [9], 25.1%.
`CCc1nn(Cc2ccc(-c3ccccc3-c3nn[nH]n3)cc2)/c(=N/C(=O)C2=C(C(=O)[O-])CCC2)s1.[K+]`: the Inhibition is 20.7% in assay [4]; 57% in [5]; 45.4% in [6]; 72.1% in [7]; 11.4% in [12]; -0.7% in assay [13]. In addition, the Reduction worked out at 27.2% in assay [11] and 38.4% in assay [8].
As for `CCc1nn(Cc2ccc(-c3ccccc3-c3nn[nH]n3)cc2)/c(=N/C(=O)c2ccccc2Cl)s1`, the half-maximal inhibitory concentration (IC50) in assay [1] turned out to be 3.6 nM. Moreover, the inhibition in vivo at 3 mg/kg is -11.3% in [2] and 21.3% in assay [3]. The Reduction in assay [10] is 20.2%.
With `CCc1nn(Cc2ccc(-c3ccccc3-c3nn[nH]n3)cc2)/c(=N/C(C)=O)s1`, in [1], the 50% inhibitory concentration (IC50) was determined as 7.2 nM. Besides, the inhibition in vivo at 3 mg/kg was -10.3% in assay [2] and 11.3% in assay [3].
For `CCCCc1nc(Cl)c(CO)n1Cc1ccc(-c2ccccc2-c2nnn[n-]2)cc1.[K+]` [LOSARTAN POTASSIUM], the Activity worked out at 40.4% in assay [14] and 27.4% in assay [15]. In addition, the inhibition in vivo at 10 mg/kg in [16] came to 57.4%; in assay [17], 74.2%. For the same compound, the inhibition in vivo at 3 mg/kg was 27.9% in [18] and 50.1% in [20]. Further, the inhibition in vivo at 1 mg/kg in [19] came out at 7.3%; in assay [21] it was 19.3%.
